# Results from ChEMBL document CHEMBL1201862, “PubChem BioAssay data set” (2004).
# Calls of active or inactive are those of the source.
# Legend:
# [1] = test system: CHO-K1; test: (§1) Counterscreen for antagonists of the orexin 1 receptor (OX1R; HCRTR1): Homogeneous time resolved fluorescence (HTRF)-based cell-based dose response assay to identify antagonists of the parental CHO-K1 cell line. [Related pubchem assays (depositor defined):AID434989, AID435008, AID463079, AID485270, AID492963, AID492964, AID492965, AID493232, AID504699, AID504701]; format: functional; conditions: Cricetulus griseus
# [2] = biological target: T1, Orexin/Hypocretin receptor type 1 (Homo sapiens, UniProt O43613); test: (§2) Fluorescence-based cell-based high throughput dose response assay for antagonists of the orexin 1 receptor (OX1R; HCRTR1). [Related pubchem assays (depositor defined):AID434989, AID435008, AID463079, AID485270, AID492963, AID492964, AID492965, AID493232, AID504717, AID504718]; format: functional
# T1 sequence (O43613 whole entry): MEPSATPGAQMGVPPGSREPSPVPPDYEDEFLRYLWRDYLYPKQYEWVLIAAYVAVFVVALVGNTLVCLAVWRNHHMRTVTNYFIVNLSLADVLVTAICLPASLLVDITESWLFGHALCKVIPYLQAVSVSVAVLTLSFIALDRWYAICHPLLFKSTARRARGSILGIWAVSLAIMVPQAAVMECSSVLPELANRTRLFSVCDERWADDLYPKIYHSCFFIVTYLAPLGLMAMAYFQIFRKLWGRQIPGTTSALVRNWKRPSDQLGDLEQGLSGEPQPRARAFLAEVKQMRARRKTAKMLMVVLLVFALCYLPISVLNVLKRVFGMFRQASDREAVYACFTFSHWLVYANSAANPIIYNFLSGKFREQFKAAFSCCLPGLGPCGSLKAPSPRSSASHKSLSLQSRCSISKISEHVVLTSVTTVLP
# [3] = as §1, with “Fluorescence-based” for “Homogeneous time resolved fluorescence (HTRF)-based”, “cell-based high throughput” for “cell-based”, “CHO” for “CHO-K1”; format: functional
# [4] = biological target: T1, Orexin/Hypocretin receptor type 1; test: as §2, with “Homogeneous Time Resolved Fluorescence (HTRF)-based” for “Fluorescence-based”; format: functional
# [5] = biological target: Cytochrome P450 3A4 (Homo sapiens, UniProt P08684);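 further: CYP3A4 tested as one member of a cytochrome P450 panel screen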
# Chain of Cytochrome P450 3A4 (P08684 whole entry): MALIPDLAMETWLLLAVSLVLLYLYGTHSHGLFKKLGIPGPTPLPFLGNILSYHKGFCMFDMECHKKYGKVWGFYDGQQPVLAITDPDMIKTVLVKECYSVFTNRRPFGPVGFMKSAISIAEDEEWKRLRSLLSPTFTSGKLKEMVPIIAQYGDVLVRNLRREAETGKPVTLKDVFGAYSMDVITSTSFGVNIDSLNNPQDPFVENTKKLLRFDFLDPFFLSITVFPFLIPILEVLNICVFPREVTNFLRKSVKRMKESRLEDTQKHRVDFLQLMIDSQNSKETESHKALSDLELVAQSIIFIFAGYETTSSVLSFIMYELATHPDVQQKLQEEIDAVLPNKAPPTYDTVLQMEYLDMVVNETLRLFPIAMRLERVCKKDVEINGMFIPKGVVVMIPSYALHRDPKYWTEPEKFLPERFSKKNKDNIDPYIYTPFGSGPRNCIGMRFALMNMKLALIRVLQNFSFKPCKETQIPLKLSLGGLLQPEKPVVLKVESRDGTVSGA
# [6] = biological target: Cytochrome P450 2C9 (Homo sapiens, UniProt P11712)
# Chain of Cytochrome P450 2C9 (P11712 whole entry): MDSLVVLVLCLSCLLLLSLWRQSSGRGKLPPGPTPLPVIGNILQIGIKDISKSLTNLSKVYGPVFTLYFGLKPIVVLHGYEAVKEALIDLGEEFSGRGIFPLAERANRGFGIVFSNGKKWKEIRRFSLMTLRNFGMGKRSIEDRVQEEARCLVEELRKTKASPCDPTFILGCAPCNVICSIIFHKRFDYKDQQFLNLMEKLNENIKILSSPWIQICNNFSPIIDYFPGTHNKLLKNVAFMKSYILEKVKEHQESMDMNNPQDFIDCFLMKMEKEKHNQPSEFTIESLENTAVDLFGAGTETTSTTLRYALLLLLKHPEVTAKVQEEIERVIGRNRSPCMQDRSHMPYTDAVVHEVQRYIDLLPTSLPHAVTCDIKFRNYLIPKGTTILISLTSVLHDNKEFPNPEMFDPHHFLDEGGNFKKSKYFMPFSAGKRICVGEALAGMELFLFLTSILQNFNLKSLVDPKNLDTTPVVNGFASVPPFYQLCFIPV
# [7] = biological target: T2, Tyrosine-protein phosphatase non-receptor type 22 (Homo sapiens, UniProt Q9Y2R2); format: functional
# T2 sequence (Q9Y2R2 whole entry): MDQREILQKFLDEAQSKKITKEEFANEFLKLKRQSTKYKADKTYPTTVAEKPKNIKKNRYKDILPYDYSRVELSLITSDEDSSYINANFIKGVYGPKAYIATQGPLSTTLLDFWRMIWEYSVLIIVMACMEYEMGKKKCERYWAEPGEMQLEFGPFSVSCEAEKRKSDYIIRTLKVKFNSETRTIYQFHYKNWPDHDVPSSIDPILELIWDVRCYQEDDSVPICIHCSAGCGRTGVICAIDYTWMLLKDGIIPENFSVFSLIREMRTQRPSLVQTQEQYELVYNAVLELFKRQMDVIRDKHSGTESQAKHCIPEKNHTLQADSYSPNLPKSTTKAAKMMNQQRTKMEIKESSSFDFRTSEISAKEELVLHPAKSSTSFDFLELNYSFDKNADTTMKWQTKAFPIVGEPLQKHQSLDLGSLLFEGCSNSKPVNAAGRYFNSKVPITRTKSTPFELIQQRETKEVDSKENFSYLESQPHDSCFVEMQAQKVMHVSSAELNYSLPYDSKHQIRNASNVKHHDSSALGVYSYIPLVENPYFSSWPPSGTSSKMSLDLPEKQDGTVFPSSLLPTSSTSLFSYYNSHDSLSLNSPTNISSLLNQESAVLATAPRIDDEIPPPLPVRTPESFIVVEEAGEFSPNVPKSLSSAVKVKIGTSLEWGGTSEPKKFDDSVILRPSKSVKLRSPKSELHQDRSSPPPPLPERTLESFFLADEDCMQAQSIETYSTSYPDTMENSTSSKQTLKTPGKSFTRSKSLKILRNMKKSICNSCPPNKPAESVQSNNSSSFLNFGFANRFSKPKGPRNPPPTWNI
# [8] = biological target: T3, Tyrosine-protein phosphatase non-receptor type 7 (Homo sapiens, UniProt P35236); format: functional
# T3 sequence (P35236 whole entry): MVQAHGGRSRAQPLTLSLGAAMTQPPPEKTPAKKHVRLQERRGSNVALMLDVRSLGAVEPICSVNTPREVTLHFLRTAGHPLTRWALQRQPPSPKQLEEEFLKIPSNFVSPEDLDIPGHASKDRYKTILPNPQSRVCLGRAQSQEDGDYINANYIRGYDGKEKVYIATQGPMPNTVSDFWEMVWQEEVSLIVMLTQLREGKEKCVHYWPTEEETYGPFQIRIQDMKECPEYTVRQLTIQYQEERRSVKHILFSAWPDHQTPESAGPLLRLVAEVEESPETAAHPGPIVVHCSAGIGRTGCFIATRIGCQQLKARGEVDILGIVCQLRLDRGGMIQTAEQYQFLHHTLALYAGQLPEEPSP
# [9] = biological target: T2, Tyrosine-protein phosphatase non-receptor type 22; format: functional; remark: listed apart in the source
# [10] = biological target: T4, Ubiquitin-conjugating enzyme E2 N (Homo sapiens, UniProt P61088); format: functional
# T4 sequence (P61088 whole entry): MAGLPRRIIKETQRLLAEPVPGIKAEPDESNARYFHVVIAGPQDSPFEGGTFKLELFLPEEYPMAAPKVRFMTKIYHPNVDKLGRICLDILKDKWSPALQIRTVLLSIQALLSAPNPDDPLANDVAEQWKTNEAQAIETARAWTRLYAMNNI
# [11] = biological target: T4, Ubiquitin-conjugating enzyme E2 N; format: functional; remark: listed apart in the source
# [12] = biological target: T5, Bcl-2-related protein A1 (Mus musculus, UniProt Q07440); format: functional;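 further: confirmatory dose–response counterscreen on Bfl-1, used to check hits from a UBC13 polyubiquitin inhibitor campaign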
# T5 sequence (Q07440 whole entry): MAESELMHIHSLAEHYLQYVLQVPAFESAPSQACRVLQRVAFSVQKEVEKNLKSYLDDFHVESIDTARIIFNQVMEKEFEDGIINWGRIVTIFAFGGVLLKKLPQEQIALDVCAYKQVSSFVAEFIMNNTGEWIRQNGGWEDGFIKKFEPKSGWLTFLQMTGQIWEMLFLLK
# [13] = biological target: T6, High affinity choline transporter 1 (Homo sapiens, UniProt Q9GZV3); test: CHT inhibitors, dose response, cell-based, 5-point CRC, membrane potential dye (AID 504840); format: functional
# T6 sequence (Q9GZV3 whole entry): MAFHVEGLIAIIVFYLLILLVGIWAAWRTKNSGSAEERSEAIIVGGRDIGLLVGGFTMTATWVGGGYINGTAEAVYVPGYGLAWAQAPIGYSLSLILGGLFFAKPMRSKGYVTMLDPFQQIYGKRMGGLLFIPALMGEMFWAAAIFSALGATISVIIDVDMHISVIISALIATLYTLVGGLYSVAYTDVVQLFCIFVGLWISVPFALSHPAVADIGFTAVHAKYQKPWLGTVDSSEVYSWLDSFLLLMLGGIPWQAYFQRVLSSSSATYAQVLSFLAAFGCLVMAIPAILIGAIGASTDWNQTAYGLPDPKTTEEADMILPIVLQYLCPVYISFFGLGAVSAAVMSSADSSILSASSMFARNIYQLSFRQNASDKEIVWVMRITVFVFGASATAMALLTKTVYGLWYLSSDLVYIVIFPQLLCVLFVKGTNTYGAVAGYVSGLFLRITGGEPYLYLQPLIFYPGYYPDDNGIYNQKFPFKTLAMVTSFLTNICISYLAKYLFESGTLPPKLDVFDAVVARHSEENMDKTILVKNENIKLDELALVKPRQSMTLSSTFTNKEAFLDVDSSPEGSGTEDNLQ
# [14] = biological target: Cytochrome P450 2D6 (Homo sapiens, UniProt P10635);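 further: CYP2D6 member of a cytochrome P450 panel assay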
# Chain of Cytochrome P450 2D6 (P10635 whole entry): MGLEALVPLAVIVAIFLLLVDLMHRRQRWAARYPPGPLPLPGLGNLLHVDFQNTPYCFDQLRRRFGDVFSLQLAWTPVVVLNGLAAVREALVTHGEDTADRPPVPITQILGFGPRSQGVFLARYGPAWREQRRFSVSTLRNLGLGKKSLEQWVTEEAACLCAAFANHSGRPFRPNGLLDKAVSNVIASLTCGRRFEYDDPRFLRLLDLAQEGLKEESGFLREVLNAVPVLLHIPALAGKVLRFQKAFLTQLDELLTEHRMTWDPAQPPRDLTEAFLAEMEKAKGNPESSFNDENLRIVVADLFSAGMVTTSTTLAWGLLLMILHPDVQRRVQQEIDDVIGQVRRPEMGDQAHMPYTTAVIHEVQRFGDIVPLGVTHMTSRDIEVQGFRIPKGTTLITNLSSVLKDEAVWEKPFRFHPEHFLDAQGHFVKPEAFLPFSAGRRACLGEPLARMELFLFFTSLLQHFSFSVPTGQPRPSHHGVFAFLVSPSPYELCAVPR
# [15] = cytotoxicity in HEK-293T NF-kB-Luc cells, dose response, cytotoxicity control for B/T-cell NF-kB inhibitor project, cell-based, uHTS hits (AID 489019); format: functional;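 further: IC50 reflects cytotoxicity as loss of cell viability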
# [16] = test system: Jurkat; test: antigen receptor-induced NF-kB inhibitors, dose response, Jurkat, luciferase reporter, luminescence, B- and T-cell (AID 489004); format: functional, cell-based; conditions: Homo sapiens;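 further: NF-kB luciferase reporter Jurkat cells stimulated with PMA plus ionomycin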
# [17] = biological target: T7, Beta-lactamase (Pseudomonas aeruginosa, UniProt Q79MP6); test: IMP-1 metallo-beta-lactamase inhibitors, dose response, selectivity assay for VIM-2 inhibitor project, biochemical, epi-absorbance (AID 1920)
# T7 sequence (Q79MP6 whole entry): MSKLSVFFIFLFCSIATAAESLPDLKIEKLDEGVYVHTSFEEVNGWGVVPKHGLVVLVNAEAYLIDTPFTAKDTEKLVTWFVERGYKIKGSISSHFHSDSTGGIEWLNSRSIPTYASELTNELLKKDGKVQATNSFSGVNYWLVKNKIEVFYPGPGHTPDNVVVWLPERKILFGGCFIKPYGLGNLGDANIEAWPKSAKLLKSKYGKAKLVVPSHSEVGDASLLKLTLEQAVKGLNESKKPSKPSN
# [18] = biological target: T7, Beta-lactamase; test: […] counterscreen for selective VIM-2 inhibitors: dose response biochemical high throughput screening assay to identify inhibitors of IMP-1 metallo-beta-lactamase.
# [19] = biological target: T8, Cytochrome P450 1A2 (Homo sapiens, UniProt P05177);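 further: PubChem cytochrome P450 panel assay, CYP1A2 panel member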
# T8 sequence (P05177 whole entry): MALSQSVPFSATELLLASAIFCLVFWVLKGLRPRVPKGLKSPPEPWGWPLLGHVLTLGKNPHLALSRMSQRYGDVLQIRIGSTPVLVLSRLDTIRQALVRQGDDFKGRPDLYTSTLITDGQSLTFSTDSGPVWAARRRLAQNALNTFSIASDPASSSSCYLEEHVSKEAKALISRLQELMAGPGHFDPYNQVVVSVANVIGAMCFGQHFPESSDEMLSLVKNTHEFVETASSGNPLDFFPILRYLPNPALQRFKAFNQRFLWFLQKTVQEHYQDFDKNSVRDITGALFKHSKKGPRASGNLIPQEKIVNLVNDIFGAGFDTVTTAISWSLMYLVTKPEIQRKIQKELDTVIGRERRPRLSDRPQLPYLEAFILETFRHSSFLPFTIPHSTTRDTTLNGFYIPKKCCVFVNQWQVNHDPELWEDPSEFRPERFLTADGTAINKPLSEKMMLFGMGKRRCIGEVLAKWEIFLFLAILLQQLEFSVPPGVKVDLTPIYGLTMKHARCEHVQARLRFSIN
# [20] = biological target: Beta-lactamase (Salmonella choleraesuis (strain SC-B67), UniProt Q5J463); test: Epi-absorbance-based counterscreen for selective VIM-2 inhibitors: dose response biochemical high throughput screening assay to identify inhibitors of TEM-1 serine-beta-lactamase.
# Chain of Beta-lactamase (Salmonella choleraesuis (strain SC-B67), UniProt Q5J463) (Q5J463 whole entry): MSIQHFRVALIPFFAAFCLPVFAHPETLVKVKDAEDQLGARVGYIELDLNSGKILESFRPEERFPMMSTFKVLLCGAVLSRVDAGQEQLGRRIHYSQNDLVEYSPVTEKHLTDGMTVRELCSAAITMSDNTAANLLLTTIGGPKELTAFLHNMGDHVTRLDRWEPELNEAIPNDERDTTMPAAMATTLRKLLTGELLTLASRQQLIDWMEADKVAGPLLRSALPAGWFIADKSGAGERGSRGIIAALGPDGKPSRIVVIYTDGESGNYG
compound,measurement,setting,value
Oc1ccccc1-c1nc(NCC2CCCO2)c2ccccc2n1 (centres undefined),IC50,[1],> 66.2 µM (inactive)
same,IC50,[2],8.66 µM (active)
same,IC50,[3],45.8 µM (inactive)
same,IC50,[4],3.73 µM (active)
COC(=O)COc1ccc(/C=C2/SC(=O)N(CC(=O)N3CCCC3)C2=O)cc1Br,AC50,[5],inconclusive
same,AC50,[6],10 µM (inconclusive)
CC1Cc2ccccc2N1CC(=O)Nc1cccc(S(N)(=O)=O)c1 (centres undefined),IC50,[7],> 79.4 µM (inactive)
same,IC50,[8],> 79.4 µM (inactive)
same,IC50,[9],> 79.4 µM (inactive)
Cc1c(NC(=O)CCCN2C(=O)c3cccc4cccc(c34)C2=O)c(=O)n(-c2ccccc2)n1C,IC50,[10],8.02 µM (active)
same,IC50,[11],18.5 µM (active)
same,IC50,[12],> 20 µM (inactive)
COc1ccc(Cc2nnc(NC(=O)c3ccccc3F)s2)cc1OC,IC50,[7],> 79.4 µM (inactive)
same,IC50,[8],> 79.4 µM (inactive)
same,IC50,[9],> 79.4 µM (inactive)
Cc1ccnc(SCc2cc(=O)c(OC(=O)c3ccco3)co2)n1,IC50,[13],15.8 µM (active)
O=C(Cn1cnc2ccccc2c1=O)NCCC(=O)Nc1ccc2c(c1)OCCO2,AC50,[5],inconclusive
same,AC50,[14],inconclusive
CCCCCn1c(=O)[nH]c2cc(C(=O)NCCCN3CCCCC3C)ccc2c1=O (centres undefined),IC50,[13],14.5 µM (active)
CCc1ccc(-c2nc(C[S+]([O-])CC(=O)NCc3ccco3)c(C)o2)cc1 (centres undefined),IC50,[15],> 80 µM (inactive)
same,IC50,[16],44.1 µM (inactive)
CCCC(=O)Nc1nnc(SCC(=O)NCc2cccs2)s1,AC50,[5],inconclusive
same,IC50,[17],> 59.6 µM (inactive)
same,IC50,[18],> 59.6 µM (inactive)
same,AC50,[19],10 µM (inconclusive)
same,IC50,[20],> 59.6 µM (inactive)
CCN(CC(=O)NCc1cccs1)C(=O)c1cccc(S(=O)(=O)Nc2ccccc2OC)c1,IC50,[10],11.3 µM (active)
same,IC50,[11],17.1 µM (active)
same,IC50,[12],> 20 µM (inactive)
